According to patent US4966900A, “Cephalosporin β-lactam compound and medicinal composition” (priority 1986, dated 1990):
In brackets after ≈: the same amount, converted by molar mass. Counter-ions that a name gives are not always drawn.

Legend:
Assay in all cases: MIC
P. vulgaris GN7919 = details: Proteus vulgaris, GN7919
E. cloacae 1V25 = details: Enterobacter cloacae
C. freundii 1R524 = details: Citrobacter freundii, 1R524
C. freundii 1R526 = details: Citrobacter freundii, 1R526
E. colacae GN7471 = details: Table 5
E. coli GN5482 = details: Escherichia coli, GN5482, E. coli GN5482; Table 5
C. freundii 5D60-1 = details: Citrobacter freundii, 5D601
C. freundii GN7391 = details: Citrobacter freundii, GN7391, C. freundii GN7391
K. pneumoniae 4at521 = details: Klebsiella pneumoniae, 4AT521
C. freundii 1R527 = details: Citrobacter freundii, 1R527
C. freundii 1R523 = details: Citrobacter freundii, 1R523
P. aeruginosa 4au542 = details: Pseudomonas aeruginosa, 4AU542, P. aeruginosa 4au542; Table 5
P. aeruginosa GN10362 = details: Pseudomonas aeruginosa, GN10362
E. cloacae 908RN = details: Enterobacter cloacae
S. marcescens GN10857 = details: Serratia marcescens, GN10857, S. marcescens GN10857; Table 5
P. cepacia OF189 = details: Burkholderia cepacia, OF189, P. cepacia OF189; Table 5
P. maltophilia OF247 = details: Stenotrophomonas maltophilia, Table 5
E. coli ML4707 = details: Escherichia coli, ML4707, E. coli ML4707; Table 5
S. aureus Smith = details: Staphylococcus aureus, Table 5
E. cloacae 5D63-2 = details: Enterobacter cloacae, 5D632
C. freundii 1U692 = details: Citrobacter freundii, 1U692
E. cloacae 5D52-2 = details: Enterobacter cloacae, 5D522
E. cloacae 1Y247 = type: cell-based; details: Enterobacter cloacae, Table 6, read-out: MIC
Experimental: (§1) The minimum inhibition concentrations (MIC) of the compounds obtained in the respective examples described above were measured according to the standard method of Japanese Chemotherapy Association.

S. aureus IAA498 = type: cell-based; details: Staphylococcus aureus, Table 5
Experimental: as §1

C. freundii 1U589 = details: Citrobacter freundii, 1U589
P. aeruginosa 5D58-1 = details: Pseudomonas aeruginosa, 5D581, P. aeruginosa 5D58-1; Table 5

Compound | MIC (P. vulgaris GN7919) [µg/mL] | MIC (E. cloacae 1V25) [µg/mL] | MIC (C. freundii 1R524) [µg/mL] | MIC (C. freundii 1R526) [µg/mL] | MIC (E. colacae GN7471) [µg/mL] | MIC (E. coli GN5482) [µg/mL] | MIC (C. freundii 5D60-1) [µg/mL] | MIC (C. freundii GN7391; Table 5) [µg/mL] | MIC (C. freundii GN7391; Table 6) [µg/mL] | MIC (K. pneumoniae 4at521) [µg/mL] | MIC (C. freundii 1R527) [µg/mL] | MIC (C. freundii 1R523) [µg/mL] | MIC (P. aeruginosa 4au542) [µg/mL] | MIC (P. aeruginosa GN10362) [µg/mL] | MIC (E. cloacae 908RN; E. cloacae 908RN, Table 6) [µg/mL] | MIC (E. cloacae 908RN; E. colacae 908RN, Table 5) [µg/mL] | MIC (S. marcescens GN10857) [µg/mL] | MIC (P. cepacia OF189) [µg/mL] | MIC (P. maltophilia OF247) [µg/mL] | MIC (E. coli ML4707) [µg/mL] | further results
Cc1nc2nc(C(=O)O)cc(SCC3=C(C(=O)O)N4C(=O)C(NC(=O)C(=NOC(C)(C)C(=O)NNC(=O)c5ccc(O)c(O)c5)c5csc(N)n5)C4SC3)n2n1 (stereo not drawn) [Example 37] | 0.78 (≈ 0.942 µM) | 6.25 (≈ 7.55 µM) | 0.1 (≈ 0.121 µM) | 0.1 (≈ 0.121 µM) | 0.78 (≈ 0.942 µM) | 0.012 (≈ 0.0145 µM) | 0.39 (≈ 0.471 µM) | 1.56 (≈ 1.88 µM) | 3.13 (≈ 3.78 µM) | < 0.006 | 0.1 (≈ 0.121 µM) | 0.1 (≈ 0.121 µM) | 0.2 (≈ 0.242 µM) | 0.05 (≈ 0.0604 µM) | 0.78 (≈ 0.942 µM) | 0.78 (≈ 0.942 µM) | 0.2 (≈ 0.242 µM) | < 0.006 | 0.39 (≈ 0.471 µM) | 0.012 (≈ 0.0145 µM) | MIC (S. aureus Smith): 25 µg/mL (≈ 30.2 µM); MIC (E. cloacae 5D63-2): 0.2 µg/mL (≈ 0.242 µM); MIC (C. freundii 1U692): 0.2 µg/mL (≈ 0.242 µM); MIC (E. cloacae 5D52-2): 0.1 µg/mL (≈ 0.121 µM); MIC (E. cloacae 1Y247): 3.13 µg/mL (≈ 3.78 µM); MIC (S. aureus IAA498): 25 µg/mL (≈ 30.2 µM); MIC (C. freundii 1U589): 0.2 µg/mL (≈ 0.242 µM); MIC (P. aeruginosa 5D58-1): 0.78 µg/mL (≈ 0.942 µM)
Cc1nc2ncnn2c(SCC2=C(C(=O)O)N3C(=O)C(NC(=O)C(=NOC(C)(C)C(=O)NNC(=O)c4ccc(O)c(O)c4)c4csc(N)n4)C3SC2)c1C (stereo not drawn) [Example 39] | 0.78 (≈ 0.978 µM) | 12.5 (≈ 15.7 µM) | 0.1 (≈ 0.125 µM) | 0.1 (≈ 0.125 µM) | 1.56 (≈ 1.96 µM) | < 0.006 | 0.39 (≈ 0.489 µM) | 3.13 (≈ 3.92 µM) | 3.13 (≈ 3.92 µM) | 0.012 (≈ 0.015 µM) | 0.1 (≈ 0.125 µM) | 0.1 (≈ 0.125 µM) | 0.39 (≈ 0.489 µM) | 0.2 (≈ 0.251 µM) | 3.13 (≈ 3.92 µM) | 1.56 (≈ 1.96 µM) | 0.2 (≈ 0.251 µM) | < 0.006 | 0.2 (≈ 0.251 µM) | < 0.006 | MIC (S. aureus Smith): 12.5 µg/mL (≈ 15.7 µM); MIC (E. cloacae 5D63-2): 0.2 µg/mL (≈ 0.251 µM); MIC (C. freundii 1U692): 0.39 µg/mL (≈ 0.489 µM); MIC (E. cloacae 5D52-2): 0.39 µg/mL (≈ 0.489 µM); MIC (E. cloacae 1Y247): 1.56 µg/mL (≈ 1.96 µM); MIC (S. aureus IAA498): 12.5 µg/mL (≈ 15.7 µM); MIC (C. freundii 1U589): 0.39 µg/mL (≈ 0.489 µM); MIC (P. aeruginosa 5D58-1): 0.78 µg/mL (≈ 0.978 µM)
Cc1nc2c(C(=O)O)cnn2c(SCC2=C(C(=O)O)N3C(=O)C(NC(=O)C(=NOC(C)(C)C(=O)NNC(=O)c4ccc(O)c(O)c4)c4csc(N)n4)C3SC2)c1C (stereo not drawn) [Example 27, 7-{2-[2-Amino-1,3-thiazol-4-yl]-2-[1-(3-(3,4-dihydroxybenzoyl)carbazoyl)-1-methylethoxyimino]acetamide}-3-[(3-carboxy-5,6-dimethylpyrazolo[1,5-a]pyrimidin-7-yl)thiomethyl]-3-cephem-4-carboxylic acid.hydrochloride] | 0.39 | 0.39 | 0.1 | 0.1 | 0.78 | < 0.006 | 6.25 | 0.78 | 0.78 | < 0.006 | 0.1 | 0.2 | 0.2 | 0.05 | 0.78 | 0.39 | 0.1 | 0.012 | 0.2 | 0.012 | MIC (S. aureus Smith): 25 µg/mL; MIC (E. cloacae 5D63-2): 0.2 µg/mL; MIC (C. freundii 1U692): 0.2 µg/mL; MIC (E. cloacae 5D52-2): 0.1 µg/mL; MIC (E. cloacae 1Y247): 0.78 µg/mL; MIC (S. aureus IAA498): 50 µg/mL; MIC (C. freundii 1U589): 0.39 µg/mL; MIC (P. aeruginosa 5D58-1): 0.2 µg/mL
